Assay results published in US8039510B2, “Methods of making and using theaflavin, theaflavin-3-gallate, theaflavin-3′-gallate and theaflavin 3,3′-digallate and mixtures thereof” (Nashai Biotech, LLC, priority 2001, dated 2011).

System: Male Sprague-Dawley rats
Assay: Lipid profile of rats fed cholesterol diet plus theaflavins or catechin for eight weeks
Type: in vivo, rat
Conditions: for HDL / LDL / TC / TG: rat plasma, eight weeks; for reducing plasma levels of TC, LDL-C and TG, compared with catechin: rats
Protocol: Male Sprague-Dawley rats weighing 100 g to 130 g were divided into nine groups of ten rats. The animals were individually housed in stainless-steel cages with screen bottoms in a room maintained at between 22° C. and 24° C. They were fed stationary feedstuff and water as follows as described in Table 1. In addition the rats in Group TF1-1, TF1-2 or TF1-3 were fed pure theaflavin in a dosage of 1 mg/kg/day, 2 mg/kg/day and 4 mg/kg/day, respectively. The animals in group TF2A-2, TF2B-2 or RF3-2 were fed pure theaflavin-3-gallate, theaflavin-3′-gallate and theaflavin-3,3′-digallate, respectively in a dosage of 2 mg/kg/day. The animals in group CA-1 and CA-2 were fed catechins in a dosage of 1 mg/kg/day or 2 mg/kg/day, respectively.
The Sprague Dawley rats were fed the above diets for eight weeks before sampling. The rats were not fed for 12 hours prior to sampling. The rats were given either theaflavin, theaflavin-3-gallate, theaflavin-3′-gallate, theaflavin-3,3′-digallate or catechin one hour in advance of collecting the blood sample.

[1] = group TF1-3: 4 mg/kg/day per text (Table 1 prints 3)

Compound | HDL (2 mg/kg/day) | LDL (2 mg/kg/day) | TC (2 mg/kg/day) | TG (2 mg/kg/day) | reducing plasma levels of TC, LDL-C and TG, compared with catechin | HDL (1 mg/kg/day) | LDL (1 mg/kg/day) | TC (1 mg/kg/day) | TG (1 mg/kg/day, mean ± spread) | HDL [1] | LDL [1] | TC [1] | TG [1]
O=C(O[C@@H]1Cc2c(O)cc(O)cc2O[C@@H]1c1cc(=O)c(O)c2c(O)c(O)cc([C@H]3Oc4cc(O)cc(O)c4C[C@H]3O)c2c1)c1cc(O)c(O)c(O)c1 [theaflavin-3-gallate] | 49.2 ± 1.9^3 | 32.2 ± 3.7^1 | 97.3 ± 8.4^1 | 95.7 ± 10.5^1 | more effective | – | – | – | – | – | – | – | –
O=c1c(O)cc([C@H]2Oc3cc(O)cc(O)c3C[C@H]2O)cc2c([C@H]3Oc4cc(O)cc(O)c4C[C@H]3O)cc(O)c(O)c12 [theaflavin] | 49.2 ± 2.1^3 | 34.6 ± 3.7^1 | 101.3 ± 7.9^1 | 97.4 ± 11.6^1 | more effective | 48.8 ± 1.7^3 | 45.6 ± 3.1^1 | 116.3 ± 8.2^1 | 108.1 ± 13.8^2 | 49.4 ± 1.9^3 | 25.3 ± 2.2^1 | 90.8 ± 7.1^1 | 87.7 ± 12.2^1
theaflavin-3,3′-digallate | 49.3 ± 1.9^3 | 31.2 ± 4.1^1 | 95.5 ± 7.4^1 | 95.36 ± 9.2^1 | more effective | – | – | – | – | – | – | – | –
theaflavin-3′-gallate | 49.3 ± 2.7^3 | 32.4 ± 3.3^1 | 97.8 ± 8.5^1 | 96.2 ± 10.2^1 | more effective | – | – | – | – | – | – | – | –
